{"source": "patent US10703735B2", "about": "“4-phenyl-coumarin derivatives, processes for their preparation and uses thereof for the treatment of cancer” (Lead Discovery Center GmbH, priority 2018, dated 2020)"}
{"molecular_target": "mitochondrial RNA-polymerase (POLRMT) (Mus musculus, UniProt Q8BKF1)", "sequence (Q8BKF1 42-1207)": "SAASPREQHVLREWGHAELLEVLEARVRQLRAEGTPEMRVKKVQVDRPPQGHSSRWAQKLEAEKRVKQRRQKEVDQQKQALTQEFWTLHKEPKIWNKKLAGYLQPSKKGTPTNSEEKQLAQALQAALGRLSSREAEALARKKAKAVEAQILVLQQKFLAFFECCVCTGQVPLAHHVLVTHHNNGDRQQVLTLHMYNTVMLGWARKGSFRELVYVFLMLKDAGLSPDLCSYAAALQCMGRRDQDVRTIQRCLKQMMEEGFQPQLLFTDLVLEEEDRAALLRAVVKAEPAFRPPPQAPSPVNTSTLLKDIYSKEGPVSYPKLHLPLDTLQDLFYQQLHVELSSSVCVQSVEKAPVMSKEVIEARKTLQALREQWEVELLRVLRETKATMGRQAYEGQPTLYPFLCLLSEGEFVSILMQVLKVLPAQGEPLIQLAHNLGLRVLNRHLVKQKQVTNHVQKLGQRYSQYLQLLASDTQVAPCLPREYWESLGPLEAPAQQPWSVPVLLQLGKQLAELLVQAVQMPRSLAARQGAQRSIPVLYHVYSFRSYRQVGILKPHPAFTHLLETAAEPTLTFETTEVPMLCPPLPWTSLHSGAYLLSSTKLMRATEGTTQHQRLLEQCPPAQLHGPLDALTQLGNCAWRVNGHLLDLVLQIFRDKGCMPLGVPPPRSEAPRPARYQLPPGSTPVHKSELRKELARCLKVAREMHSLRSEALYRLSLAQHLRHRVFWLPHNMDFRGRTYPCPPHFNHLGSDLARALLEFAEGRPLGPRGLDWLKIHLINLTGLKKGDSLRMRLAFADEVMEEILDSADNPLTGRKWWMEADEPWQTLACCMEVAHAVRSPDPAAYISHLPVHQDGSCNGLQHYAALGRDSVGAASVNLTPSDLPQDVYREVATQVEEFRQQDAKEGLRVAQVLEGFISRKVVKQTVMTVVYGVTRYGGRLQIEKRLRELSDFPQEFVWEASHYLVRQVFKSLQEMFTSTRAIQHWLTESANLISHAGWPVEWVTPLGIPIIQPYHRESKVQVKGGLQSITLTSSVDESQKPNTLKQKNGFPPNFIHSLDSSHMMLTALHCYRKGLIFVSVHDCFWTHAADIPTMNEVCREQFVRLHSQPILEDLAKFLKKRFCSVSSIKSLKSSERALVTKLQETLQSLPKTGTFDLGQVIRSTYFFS", "assay": "Homogeneous TR-FRET assay for mitochondrial transcription activity", "assay_type": "biochemical", "settings": "homogeneous TR-FRET assay according to Example 4; read-out: mitochondrial transcription activity (IC-50)", "description": "The TR-FRET assay was basically conducted as described in WO 2016/193231A1, especially as described in example 1 (hereby incorporated by reference). With respect to the background of the mitochondrial transcription it is referred to Falkenberg et al. (2002) and Posse et al. (Posse et al. 2015). The method monitors the activity of mitochondrial RNA-polymerase via detection of the formation of its product, a 407 bp long RNA sequence. Detection of the product is facilitated by hybridization of two DNA-oligonucleotide probes to specific and adjacent sequences within the RNA product sequence. Upon annealing of the probes, two fluorophores that are coupled directly to an acceptor nucleotide probe (ATT0647, 5′) or introduced via a coupled streptavidin interacting with a biotinylated donor nucleotide probe on the other side (Europium cryptate, 3) are brought into sufficient proximity to serve as a fluorescence-donor-acceptor pair as generally described in Walters and Namchuk (2003). Thus, a FRET signal at 665 nm is generated upon excitation at 340 nm.\nBriefly, the protocol described here was applied for screening and activity determination in a low-volume 384-well microtiter plate with non-binding surface. For high-throughput application in the 1536-well microtiter plate format, volumes of the reagent mixes were adjusted, maintaining the volumetric ratio. Proteins POLRMT (NM_172551.3), TFAM (NM_009360.4) and TFB2M (NM_008249.4) were diluted from their stocks to working concentrations of 150 nM, 1.8 μM and 330 nM respectively, in a dilution buffer containing 100 mM Tris-HCl pH 8.0, 200 mM NaCl, 10% (v/v) glycerole, 2 mM glutathione (GSH), 0.5 mM EDTA and 0.1 mg/mL BSA. Protein dilutions and template DNA, comprising a pUC18 plasmid encoding the mitochondrial light strand promoter, restriction linearized proximal to the promoter 3′-end (pUC-LSP), were mixed at the twofold final assay-concentration in a reaction buffer, containing 10 mM Tris-HCl pH 7.5, 10 mM MgCl2, 40 mM NaCl, 2 mM GSH, 0.01% (w/v) Tween-20 and 0.1 mg/mL BSA.\n5 μL of this mix were dispensed, depending on the chosen microtiter plate format, using multi-channel pipettes or a Multidrop® dispenser (Thermo Fisher Scientific, Waltham Mass.) into the wells of a microtiter plate and incubated at room temperature (RT) for 10 min. Chemical compounds under scrutiny in the assay were applied using contact-free acoustic droplet-dispensing (Echo520® Labcyte Inc., Sunnyvale Calif.) from 10 mM compound stocks in 100% DMSO, to a final concentration of 10 μM or in serial dilution series of the required concentration range. Equal amounts of DMSO without any compound were added to positive control samples, followed by an incubation step at RT for 10 min.\nThe enzymatic reaction was started by the addition of 5 μL of a mix of dNTPs in reaction buffer to a final concentration of 500 μM each. No nucleotide mix was added to negative control samples. The content of the wells was mixed using a VarioTeleshaker™ (Thermo Fisher Scientific, Waltham Mass.) at 1500 rpm for 45 sec after which the microtiter plate was centrifuged at 500×g for 1 min. The samples were incubated for 2 h at RT with humidity control to avoid evaporation. The detection reagents were prepared in a buffer that was composed, such that the enzymatic reaction was terminated due to chelating of Mg-ions and increased ionic strength, containing 50 mM Tris-HCl pH 7.5, 700 mM NaCl, 20 mM EDTA, and 0.01% (w/v) Tween-20. Importantly Eu-cryptate-coupled streptavidin had to be preincubated with a 100-fold molar excess of a random sequence oligonucleotide for 10 min at RT in the dark to block unspecific binding of single stranded RNA to the protein. Subsequently, the blocked streptavidin(-Eu) was mixed with the DNA-probes on ice and kept away from light until use. […]", "units": {"IC50": "nM"}}
{"smiles": "CCOC(=O)[C@H]1CCCN(C(=O)C(C)Oc2ccc3c(-c4ccccc4)cc(=O)oc3c2)C1", "note": "(mixture of isomers) [Compound 64, ethyl rac-(3S)-1-[2-(2-oxo-4-phenyl-chromen-7-yl)oxypropanoyl]piperidine-3-carboxylate]", "IC50": "1000 to 10000"}
{"smiles": "CC(Oc1ccc2c(-c3ccccc3)cc(=O)oc2c1)C(=O)N1CCC[C@H](C(=O)N(C)C)C1", "note": "(mixture of isomers) [Compound 68, rac-(3S)-N,N-dimethyl-1-[2-(2-oxo-4-phenyl-chromen-7-yl)oxpropanoyl]piperidine-3-carboxamide]", "IC50": "1000 to 10000"}
{"smiles": "CCOC(=O)C(C)Oc1ccc2c(-c3ccc(Cl)cc3)cc(=O)oc2c1", "note": "(stereo not shown) [Compound 3, ethyl 2-[4-(4-chlorophenyl)-2-oxo-chromen-7-yl]oxypropanoate]", "IC50": "100 to 1000"}
{"smiles": "CCOC(=O)C(C)Oc1ccc2c(-c3cccc(Cl)c3)cc(=O)oc2c1", "note": "(stereo not shown) [Compound 4, ethyl 2-[4-(3-chlorophenyl)-2-oxo-chromen-7-yl]oxypropanoate]", "IC50": "100 to 1000"}
{"smiles": "CC(Oc1ccc2c(-c3ccccc3)cc(=O)oc2c1)C(=O)Nc1ccc(CCCO)cc1", "note": "(stereo not shown) [Compound 5, N-[4-(3-hydroxypropyl)phenyl]-2-(2-oxo-4-phenyl-chromen-7-yl)oxy-propanamide]", "IC50": "100 to 1000"}
{"smiles": "CC(Oc1ccc2c(-c3ccccc3)cc(=O)oc2c1)C(=O)Nc1ccccn1", "note": "(stereo not shown) [Compound 6, 2-(2-oxo-4-phenyl-chromen-7-yl)oxy-N-(2-pyridyl)propanamide]", "IC50": "100 to 1000"}
{"smiles": "CCOC(=O)C(C)Oc1ccc2c(-c3ccc(F)cc3)cc(=O)oc2c1", "note": "(stereo not shown) [Compound 8, ethyl 2-[4-(4-fluorophenyl)-2-oxo-chromen-7-yl]oxypropanoate]", "IC50": "100 to 1000"}
{"smiles": "CCOC(=O)C(C)Oc1ccc2c(-c3ccc(C)cc3)cc(=O)oc2c1", "note": "(stereo not shown) [Compound 9, ethyl 2-[2-oxo-4-(p-tolyl)chromen-7-yl]oxypropanoate]", "IC50": "100 to 1000"}
{"smiles": "COC(=O)C1CCCN(C(=O)C(C)Oc2cc3oc(=O)cc(-c4ccccc4)c3cc2Cl)C1", "note": "(stereo not shown) [Compound 10, methyl 1-[2-(6-chloro-2-oxo-4-phenyl-chromen-7-yl)oxypropanoyl]piperidine-3-carboxylate]", "IC50": "100 to 1000"}
{"smiles": "CC(Oc1cc2oc(=O)cc(-c3ccccc3)c2cc1Cl)C(=O)Nc1ccccn1", "note": "(stereo not shown) [Compound 11, 2-(6-chloro-2-oxo-4-phenyl-chromen-7-yl)oxy-N-(2-pyridyl)propanamide]", "IC50": "100 to 1000"}
{"smiles": "CC(Oc1cc2oc(=O)cc(-c3ccccc3)c2cc1Cl)C(=O)N1CCCC(C(=O)O)C1", "note": "(stereo not shown) [Compound 13, 1-[2-(6-chloro-2-oxo-4-phenyl-chromen-7-yl)oxypropanoyl]piperidine-3-carboxylic acid]", "IC50": "100 to 1000"}
{"smiles": "CC(Oc1ccc2c(-c3ccccc3)cc(=O)oc2c1)C(=O)N1CCCC(C(=O)O)C1", "note": "(stereo not shown) [Compound 14, 1-[2-(2-oxo-4-phenyl-chromen-7-yl)oxypropanoyl]piperidine-3-carboxylic acid]", "IC50": "100 to 1000"}
{"smiles": "CC(Oc1ccc2c(-c3ccccc3)cc(=O)oc2c1)C(=O)Nc1ccc(CCO)cc1", "note": "(stereo not shown) [Compound 16, N-[4-(2-hydroxyethyl)phenyl]-2-(2-oxo-4-phenyl-chromen-7-yl)oxy-propanamide]", "IC50": "100 to 1000"}
{"smiles": "CC(Oc1cc2oc(=O)cc(-c3ccccc3)c2cc1Cl)C(=O)Nc1ccc(CCO)cc1", "note": "(stereo not shown) [Compound 17, 2-(6-chloro-2-oxo-4-phenyl-chromen-7-yl)oxy-N-[4-(2-hydroxyethyl)phenyl]propanamide]", "IC50": "100 to 1000"}
{"smiles": "CC(Oc1ccc2c(-c3ccccc3)cc(=O)oc2c1)C(=O)N(C)c1ccc(CCO)cc1", "note": "(stereo not shown) [Compound 18, N-[4-(2-hydroxyethyl)phenyl]-N-methyl-2-(2-oxo-4-phenyl-chromen-7-yl)oxy-propanamide]", "IC50": "100 to 1000"}
{"smiles": "CC(Oc1ccc2c(-c3ccccc3)cc(=O)oc2c1)C(=O)N1CCCC(c2nn[nH]n2)C1", "note": "(stereo not shown) [Compound 20, 7-[1-methyl-2-oxo-2-[3-(2H-tetrazol-5-yl)-1-piperidyl]ethoxy]-4-phenyl-chromen-2-one]", "IC50": "< 20"}
